Data: paper PMC7175277, “Hydroxylamine Analogue of Agmatine: Magic Bullet for Arginine Decarboxylase” (Biomolecules, 2020)

Assays:
A. chrysogenum WT strain = assay: Polyamine content in the fungi, WT strain; type: cell-based, Acremonium chrysogenum; conditions: 0.5 mM Spd, 24 h
Protocol: (§1) WT and HY A. chrysogenum strains were preliminarily grown in tubes on CD medium slants for 7 days at 25 °C and used for the inoculation of 30 mL of a liquid CD medium (seed medium). The strains were cultivated on CD medium for 48 h at 26 °C and inoculated into ten volumes of CD medium. The fermentation was carried out for 120 h at 26 °C in 250-mL Erlenmeyer flasks on a CERTOMAT BS-1 shaker (Sartorius, Germany) at 230 rpm, as described earlier. After 24 h of culture, 1 mL aliquots were removed, fungi were separated by centrifugation (15 min, 14,000 g) and washed with H2O (3 × 2 mL). The washed biomass was subjected to three cycles of freezing (−80 °C) and thawing at 20 °C in 5% perchloric acid. After the final thaw, samples were vortexed for 2 min and centrifuged for 10 min at 14,000 g. The supernatant was used for the determination of polyamine content.
(§2) The dry biomass was prepared from 2 mL aliquots of fermentation media after 24 h. The biomass was separated by centrifugation (15 min, 14,000 g), the precipitated fungi cells were washed in triplicate with 10 volumes of H2O, dried at 80 °C for 96 h to a constant weight and used for normalization of polyamine content in the fungi.
(§3) Polyamines were determined by HPLC from 50 µL of the 5% perchloric acid supernatant using a precolumn modification with Dans-Cl following mostly the published protocol. 1,7-Diaminoheptane was used as an internal standard and proline applied to quench the dansylation reaction. The solution of the dansylated polyamines in toluene (2 μL) was mixed with 50% aq. ethanol (13 µL) and applied on a reversed phase column (Cosmosil C18-MS-II, 250 × 4.6 mm, 5 µm). The column was eluted (1 mL/min) with the gradient: 0 min—0% B; 4 min—65% B; 17 min—65% B; 19 min—100% B, 23 min—100% B, 25 min—0% B; 30 min—0% B. System A—40% acetonitrile, 60% H2O. System B—80% acetonitrile, 20% tetrahydrofuran. Column temperature 40 °C, pressure 80–120 bar, fluorescent detection: λex 340 nm, λem 530 nm (detector RF-20A, Shimadzu Scientific Instrument, Columbia, MD, USA).

A. chrysogenum HY strain = assay: Polyamine content in the fungi, HY strain; type: cell-based, Acremonium chrysogenum; conditions: 0.5 mM Spd, 24 h
Protocol: as §1, §2, §3

[1] = system: DU145 prostate cancer cells; assay: Growth of DU145 cells; type: cell-based; conditions: SC (1 mM) alone; 3 days
Protocol: (§4) DU145 prostate cancer cells were cultured in high-glucose Dulbecco’s Modified Eagle’s Medium supplemented with 10% heat-inactivated fetal bovine serum, 2 mM L-glutamine and 50 μg/mL gentamycin (all from Sigma-Aldrich). The cells were plated on 6-well plates and allowed to attach overnight. […] The cells were harvested, and the pellet was mixed with 150 μL of 5% sulphosalicylic acid containing 5 μM diaminoheptane (internal standard). Polyamine analysis was carried out as described previously.

[2] = system: DU145 prostate cancer cells; assay: Intracellular polyamine pools of DU145 cells; type: cell-based; conditions: SC (1 mM) alone; 3 days
Protocol: as §4

Row | SMILES | Put (A. chrysogenum WT strain) | Spd (A. chrysogenum WT strain) | Spm (A. chrysogenum WT strain) | Put (A. chrysogenum HY strain) | Spd (A. chrysogenum HY strain) | Spm (A. chrysogenum HY strain) | Growth [1] | Put [2] | Spd [2] | Spm [2]
1 | NCCCCNCCCN [Spd, spermidine] | <10 pmol/mg Dry Weight | 12,200 ± 2180 pmol/mg Dry Weight | 70 ± 10 pmol/mg Dry Weight | <10 pmol/mg Dry Weight | 39,180 ± 4840 pmol/mg Dry Weight | 330 ± 10 pmol/mg Dry Weight |  |  |  | 
2 | NNC(N)=O [SC, semicarbazide, reference compound] |  |  |  |  |  |  | 1.00 ± 0.04 Fold | 1258 ± 157 pmol/mg Protein | 6483 ± 282 pmol/mg Protein | 3582 ± 146 pmol/mg Protein
